# Measurements as given in patent US11766472B2, “Method of treatment for hair loss” (priority 2021, dated 2023).
# Read-outs that look alike come from different tables or passages of the source.
# Legend:
# [1] = test system: hair loss (men Norwood Hamilton grade III to grade V; women Ludwig grade II and III); conditions: human, in vivo
# Experimental: (§1) This controlled clinical trial compares the current treatment for hair loss within two controlled groups for both men and women against the use of one embodiment of the nutritional therapy regimen described herein. One hundred patients in each of the 4 groups, a total of 400 patients, were followed for 1 year. The progress was evaluated every 2 months with computerized measurements of hair density, hair caliber, global photography and uniquely designed self-assessment scores.
# (§2) Group 3 TM: Treatment group for 100 men (TM) and
# (§3) Group 4 TW: treatment group for 100 women (TW)
# (§4) Treatment groups for both men and women followed the same protocol.
# hair loss = conditions: cited from earlier work
# [2] = test system: hair loss (men Norwood Hamilton grade III to grade V; women Ludwig grade II and III); test: Controlled clinical trial: minoxidil and finasteride in men, minoxidil alone in women, versus nutrient treatment regimen (Example 1); conditions: human, in vivo
# Experimental: as §1, §2, §3, §4
Structure (SMILES),Side effects observed with the control group [1],Patients having deteriorated with hair loss more than the initial status (hair loss; after one year) [%],Improvement (hair loss; end of 1 year),Non-responders (hair loss; end of 1 year),Duration for which patients complained of hair loss (initial shedding) [1],Side effects observed with the control group [2]
CC(C)(C)NC(=O)[C@H]1CC[C@H]2[C@@H]3CC[C@H]4NC(=O)C=C[C@]4(C)[C@H]3CC[C@]12C [finasteride],Loss of libido was reported by a few patients,17,48-59%,41-52%,,
Nc1cc(N2CCCCC2)nc(N)[n+]1[O-] [minoxidil],,,,,8-10 weeks,"scalp irritation, dryness, itching, and frizzy hair"
